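Dose response: 5 concentrations. Exposure: 48 h. Format: 96-well plates. Endpoint: linear interpolation; highest concentration if not reached. Abbreviation: GI50, concentration required for 50% inhibition of growth. TGI: concentration producing complete growth inhibition.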
Legend:
Assay in all cases: NCI tumour cell line growth inhibition, 48 h
[1] = test system: A549 NSCLC
[2] = test system: RPMI-8226 leukemia
[3] = test system: COLO 205 colon
[4] = test system: CAKI-1 renal
[5] = test system: SK-MEL-2 melanoma
[6] = test system: UO-31 renal
[7] = test system: M14 melanoma
[8] = test system: UACC-257 melanoma
[9] = test system: IGROV1 ovarian
[10] = test system: SK-MEL-28 melanoma
[11] = test system: NCI-H460 lung
[12] = test system: HCT-116 colon
[13] = test system: HOP-92 NSCLC
[14] = test system: SN12C renal
[15] = test system: PC-3 prostate
[16] = test system: MDA-MB-231 breast
[17] = test system: K-562 leukemia
[18] = test system: SK-OV-3 ovarian
[19] = test system: RXF 393 renal
[20] = test system: SF-295 CNS
[21] = test system: HS 578T breast
[22] = test system: EKVX NSCLC
[23] = test system: LOX IMVI melanoma
[24] = test system: ACHN renal
[25] = test system: SW-620 colon
[26] = test system: KM12 colon
[27] = test system: SR leukemia
[28] = test system: SF-268 CNS
[29] = test system: MCF7 breast
[30] = test system: MDA-MB-435
[31] = test system: TK-10 renal
[32] = test system: T-47D breast
[33] = test system: HCT-15 colon
[34] = test system: SNB-75 CNS
[35] = test system: NCI-H522 lung
[36] = test system: 786-0 renal
[37] = test system: OVCAR-8 ovarian
[38] = test system: SK-MEL-5 melanoma
[39] = test system: U251 CNS
[40] = test system: SNB-19 CNS
[41] = test system: CCRF-CEM leukemia
[42] = test system: UACC-62 melanoma
[43] = test system: SF-539 CNS
[44] = test system: DU-145 prostate
[45] = test system: HL-60(TB) leukemia
[46] = test system: MOLT-4 leukemia
[47] = test system: HOP-62 NSCLC
[48] = test system: OVCAR-3 ovarian
[49] = test system: A498 renal
[50] = test system: BT-549 breast

With `CC1=C(C(=O)Nc2ccc(F)c(Cl)c2)C(c2cccc(Cl)c2)NC(=S)N1` (stereo not given) the GI50 [1] was 12.7 µM, the TGI [1] was 41.9 µM and the GI50 [2] was 15.3 µM. The TGI [2] was greater than 50 µM, the GI50 [3] was 4.22 µM and the TGI [3] was greater than 50 µM. For the same compound, the GI50 [4] was greater than 50 µM, the TGI [4] was greater than 50 µM and the GI50 [5] was 8.4 µM. It also gave a TGI [5] of 20.5 µM, a GI50 [6] of 3.67 µM and a TGI [6] of 14.6 µM. For the same compound, the GI50 [7] was 9.02 µM, the TGI [7] was 23.4 µM and the GI50 [8] was 10.1 µM. The TGI [8] was 23.5 µM, the GI50 [9] was 10.3 µM and the TGI [9] was 39.2 µM. For the same compound, the GI50 [10] was 10.2 µM, the TGI [10] was 28 µM and the GI50 [11] was 23.9 µM. It also gave a TGI [11] greater than 50 µM, a GI50 [12] of 2.3 µM and a TGI [12] of 11.3 µM. The GI50 [13] was 32.1 µM, the TGI [13] was greater than 50 µM and the GI50 [14] was 0.00746 µM. For the same compound, the TGI [14] was 2.51 µM, the GI50 [15] was 16.1 µM and the TGI [15] was greater than 50 µM. The GI50 [16] was 7.36 µM, the TGI [16] was 17.4 µM and the GI50 [17] was 13.6 µM. The TGI [17] was 28.8 µM, the GI50 [18] was 5.26 µM and the TGI [18] was 26.6 µM. For the same compound, the GI50 [19] was 1.1 µM, the TGI [19] was 3.24 µM and the GI50 [20] was 6.28 µM. The TGI [20] was greater than 50 µM, the GI50 [21] was 26.4 µM and the TGI [21] was greater than 50 µM. It also gave a GI50 [22] of 14.6 µM, a TGI [22] of 38.6 µM and a GI50 [23] of 1.44 µM. The TGI [23] was 6.76 µM, the GI50 [24] was 3.61 µM and the TGI [24] was 14.4 µM. The GI50 [25] was greater than 50 µM, the TGI [25] was greater than 50 µM and the GI50 [26] was 1.34 µM. For the same compound, the TGI [26] was 12.6 µM, the GI50 [27] was 15.4 µM and the TGI [27] was 47.8 µM. The GI50 [28] was 10.1 µM, the TGI [28] was 25.9 µM and the GI50 [29] was 47.6 µM. The TGI [29] was greater than 50 µM, the GI50 [30] was 11.1 µM and the TGI [30] was 32.4 µM. The GI50 [31] was 9.01 µM, the TGI [31] was 45.5 µM and the GI50 [32] was 42.5 µM. The TGI [32] was greater than 50 µM, the GI50 [33] was 10.2 µM and the TGI [33] was greater than 50 µM. For the same compound, the GI50 [34] was 6.36 µM, the TGI [34] was 21 µM and the GI50 [35] was 2.13 µM. For the same compound, the TGI [35] was 17.3 µM, the GI50 [36] was 1.85 µM and the TGI [36] was 8.4 µM. It also gave a GI50 [37] of 17.1 µM, a TGI [37] greater than 50 µM and a GI50 [38] of 10 µM. For the same compound, the TGI [38] was 20.2 µM, the GI50 [39] was 6.84 µM and the TGI [39] was 18.8 µM. The GI50 [40] was 26.7 µM, the TGI [40] was greater than 50 µM and the GI50 [41] was 36.7 µM. The TGI [41] was greater than 50 µM, the GI50 [42] was 3.93 µM and the TGI [42] was 12.5 µM. It also gave a GI50 [43] greater than 50 µM, a TGI [43] greater than 50 µM and a GI50 [44] of 17.3 µM. It also gave a TGI [44] greater than 50 µM, a GI50 [45] of 16.3 µM and a TGI [45] greater than 50 µM. It also gave a GI50 [46] of 45.1 µM, a TGI [46] greater than 50 µM and a GI50 [47] of 7.83 µM. The TGI [47] was 18.9 µM, the GI50 [48] was 13.9 µM and the TGI [48] was 33.6 µM. For the same compound, the GI50 [49] was 7.3 µM, the TGI [49] was 15.7 µM and the GI50 [50] was 10.4 µM. For the same compound, the TGI [50] was 28.1 µM.

From PubChem BioAssay (NCI)
